# Source: patent publication US20040038855A1 (priority 1999, published 2004)
# Where two headings read alike, the source gives them in different places.
# Legend:
# [1] = molecular target: T1, rat MCH1 receptor (Rattus norvegicus, UniProt P97639); experiment: Binding affinity (Ki) at the rat MCH1 receptor
# T1 construct: expressed in transfected cells
# Protocol: For binding assays, pellets of transfected cells are suspended in ice-cold buffer (20 mM Tris.HCl, 5 mM EDTA, pH 7.4) and homogenized by sonication for 7 sec. The cell lysates are centrifuged at 200×g for 5 min at 4° C. The supernatants are then centrifuged at 40,000×g for 20 min at 4° C. The resulting pellets are washed once in the homogenization buffer and suspended in binding buffer (see methods for radioligand binding). Protein concentrations are determined by the method of Bradford (1976) using bovine serum albumin as the standard. Binding assays are usually performed immediately, however it is possible to prepare membranes in batch and store frozen in liquid nitrogen for future use.
# Binding is performed at 25° C. for 1 hr. Incubations are terminated by rapid vacuum filtration over GF/C glass fiber filters, presoaked in 5% PEI using 50 mM Tris pH 7.4 containing 0.01% triton X-100 as wash buffer.
# A methanolic solution of methyl (4S)-3-({[3-(4-[3-(acetylamino)phenyl]-3,6-dihydro-1(2H)pyridinyl)propyl]amino}carbonyl)-4-(3,4-difluorophenyl)-6-(methoxymethyl)-2-oxo-1,2,3,4-tetrahydro-5-pyrimidinecarboxylate was exposed to tritium gas at 1 atmosphere pressure in the presence of 5% palladium on carbon with stirring overnight to give the tritiated methyl (4S)-3-{[(3-{4-[3-(acetylamino)phenyl]-1-piperidinyl}propyl)amino]carbonyl}-4-(3,4-difluorophenyl)-6-(methoxymethyl)-2-oxo-1,2,3,4-tetrahydro-5-pyrimidinecarboxylate ((+)-isomer) After purification by reverse phase HPLC (Hypersil ODS, 4.6×100 mm, methanol:H2O:Et3N 10:90:1 to 100:0:1 in 15 min at 1.0 mL/min, with radiochemical and UV detection), this product was used as a radioligand in the MCH1 binding assays. The same procedure was carried out with H2 gas in place of ^3H2 to afford the non-radioactive version of Compound 10.
# [2] = molecular target: T2, human Alpha-1a Adrenergic receptor (Homo sapiens, UniProt P35348); experiment: Binding affinity at the human alpha-1A adrenergic receptor; details: Table 3c; read-out: hAlpha-1a Ki
# T2 construct: expressed in transfected cells
# T2 sequence (P35348 1-466): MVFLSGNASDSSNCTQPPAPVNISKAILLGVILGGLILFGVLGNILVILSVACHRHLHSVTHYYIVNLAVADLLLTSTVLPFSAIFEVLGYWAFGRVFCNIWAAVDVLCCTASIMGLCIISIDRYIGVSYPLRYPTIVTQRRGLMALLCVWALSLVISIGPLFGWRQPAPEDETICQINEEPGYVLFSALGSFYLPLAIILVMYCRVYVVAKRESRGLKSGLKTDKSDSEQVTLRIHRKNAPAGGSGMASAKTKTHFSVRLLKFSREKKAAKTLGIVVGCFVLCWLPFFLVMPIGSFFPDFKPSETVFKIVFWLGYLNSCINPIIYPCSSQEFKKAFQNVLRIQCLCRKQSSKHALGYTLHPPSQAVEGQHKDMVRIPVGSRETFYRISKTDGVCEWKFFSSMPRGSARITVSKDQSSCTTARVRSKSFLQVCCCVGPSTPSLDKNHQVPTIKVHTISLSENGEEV
# Text: (§1) Other receptors: Cell membranes expressing human dopamine D1, D2, D4 and rat D3 receptors were purchased through BioSignal, Inc. (Montreal, Canada). Binding assays using the histamine H1 receptor; dopamine receptors; and α1A, α1B, and α2 adrenergic receptors may be carried out according to the procedures described in U.S. Pat. No. 5,780,485, the disclosure of which is hereby incorporated by reference in its entirety into this application. Binding assays using the dopamine D5 receptor may be carried out according to the procedures described in U.S. Pat. No. 5,882,855, the disclosure of which is hereby incorporated by reference in its entirety into this application. Binding assays for the human α1D adrenergic receptor may be carried out according to the procedures described in U.S. Pat. No. 6,156,518, the disclosure of which is hereby incorporated by reference in its entirety into this application.
# [3] = molecular target: T3, human Dopamine D2 receptor (Homo sapiens, UniProt P14416); experiment: Binding affinity at the human dopamine D2 receptor; details: Table 3c; read-out: hD2 Ki
# T3 construct: purchased BioSignal, Inc. (Montreal, Canada)
# T3 sequence (P14416 whole entry): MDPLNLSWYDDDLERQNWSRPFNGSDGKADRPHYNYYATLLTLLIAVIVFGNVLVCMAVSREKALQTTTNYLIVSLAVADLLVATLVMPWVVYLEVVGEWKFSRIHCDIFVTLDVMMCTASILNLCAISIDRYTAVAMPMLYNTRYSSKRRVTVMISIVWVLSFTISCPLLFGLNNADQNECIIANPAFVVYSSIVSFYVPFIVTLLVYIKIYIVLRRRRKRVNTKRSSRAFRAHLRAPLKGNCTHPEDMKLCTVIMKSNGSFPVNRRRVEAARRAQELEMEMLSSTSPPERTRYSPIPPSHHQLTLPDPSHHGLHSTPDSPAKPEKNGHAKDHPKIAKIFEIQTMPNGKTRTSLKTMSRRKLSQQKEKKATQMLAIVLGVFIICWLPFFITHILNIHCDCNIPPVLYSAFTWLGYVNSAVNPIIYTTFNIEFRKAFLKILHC
# Text: as §1
# [4] = molecular target: T4, human Histamine H1 receptor (Homo sapiens, UniProt P35367); experiment: Binding affinity at the human histamine H1 receptor; details: Table 3c; read-out: hH1 Ki
# T4 construct: expressed in transfected cells
# T4 sequence (P35367 whole entry): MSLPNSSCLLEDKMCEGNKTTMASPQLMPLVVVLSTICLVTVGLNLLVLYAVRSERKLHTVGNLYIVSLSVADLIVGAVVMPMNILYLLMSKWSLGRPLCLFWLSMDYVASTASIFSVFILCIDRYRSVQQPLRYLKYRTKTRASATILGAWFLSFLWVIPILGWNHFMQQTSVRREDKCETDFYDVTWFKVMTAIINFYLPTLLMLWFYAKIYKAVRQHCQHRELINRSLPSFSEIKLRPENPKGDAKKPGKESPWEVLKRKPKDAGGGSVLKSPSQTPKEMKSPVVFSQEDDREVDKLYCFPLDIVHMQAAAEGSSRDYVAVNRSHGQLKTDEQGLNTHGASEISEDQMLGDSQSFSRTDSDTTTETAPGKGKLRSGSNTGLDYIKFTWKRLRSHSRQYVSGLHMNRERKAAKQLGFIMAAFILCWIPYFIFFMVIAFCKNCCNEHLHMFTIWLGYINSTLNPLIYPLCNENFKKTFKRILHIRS
# Text: as §1
# [5] = Examples 38-141, read-out: Ki (nM) rMCH1
# [6] = Examples 142-153, read-out: Ki (nM) rMCH1
# T1 sequence (P97639 whole entry): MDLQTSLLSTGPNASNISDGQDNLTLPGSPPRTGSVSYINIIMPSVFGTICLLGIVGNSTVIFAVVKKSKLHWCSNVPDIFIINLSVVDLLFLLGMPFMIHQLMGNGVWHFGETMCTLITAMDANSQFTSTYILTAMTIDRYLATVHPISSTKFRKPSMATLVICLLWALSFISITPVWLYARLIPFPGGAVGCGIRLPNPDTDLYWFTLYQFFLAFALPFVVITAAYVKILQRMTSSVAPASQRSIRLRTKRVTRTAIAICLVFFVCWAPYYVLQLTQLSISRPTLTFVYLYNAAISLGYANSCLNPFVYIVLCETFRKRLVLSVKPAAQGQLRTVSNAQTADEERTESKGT
"Ki [1, 5] [nM]","Ki ([1]; Table 3c, read-out: rMCH1 Ki) [nM]",Ki [2] [nM],Ki [3] [nM],Ki [4] [nM],"Ki [1, 6] [nM]",SMILES
197,197,,,,,O=C(CCCN1CCC(c2cccc(NC(=O)C3CCCCC3)c2)CC1)c1ccc(Cl)cc1 [Example 67]
11.9,11.9,61,,,,COc1cccc(CC(=O)Nc2cccc(C3CCN(CCCC(=O)c4ccc(Cl)cc4)CC3)c2)c1 [Example 69]
167,167,,,,,COCC(=O)Nc1cccc(C2CCN(CCCC(=O)c3ccc(Cl)cc3)CC2)c1 [Example 70]
720,720,,,,,CS(=O)(=O)Nc1cccc(C2CCN(CCCC(=O)c3ccc(Cl)cc3)CC2)c1 [Example 71]
272,272,,,,,CCS(=O)(=O)Nc1cccc(C2CCN(CCCC(=O)c3ccc(Cl)cc3)CC2)c1 [Example 72]
29.5,29.5,115,782,,,CC(C)C(=O)Nc1cccc(C2CCN(CCCC(=O)c3ccccc3)CC2)c1 [Example 74]
630,630,,,,,COc1ccc(C(=O)CCCN2CCC(c3cccc(NC(C)=O)c3)CC2)c(OC)c1 [Example 77]
67,67,127,1250,,,COc1cccc(CC(=O)Nc2cccc(C3CCN(CCCC(=O)c4ccc(OC)cc4OC)CC3)c2)c1 [Example 80]
192,192,516,1980,,,CC(C)C(=O)Nc1cccc(C2CCN(CCCC(=O)c3ccc(Oc4ccccc4)cc3)CC2)c1 [Example 82]
91,91,130,503,,,COc1cccc(CC(=O)Nc2cccc(C3CCN(CCCC(=O)c4ccc(Oc5ccccc5)cc4)CC3)c2)c1 [Example 83]
654,654,,,,,CC(=O)Nc1cccc(C2CCN(CCCC(=O)c3cccs3)CC2)c1 [Example 85]
362,362,,,,,CC(=O)Nc1cccc(C2CCN(CCCC(=O)c3ccc(C)cc3)CC2)c1 [Example 87]
160,160,,,,,CC(=O)Nc1cccc(C2CCN(CCCC(=O)c3ccc(Br)cc3)CC2)c1 [Example 88]
187,187,,,,,COc1cccc(CN2CCC(c3cccc(NC(=O)C(C)C)c3)CC2)c1 [Example 102]
22.2,22.2,1310,37.6,,,CC(C)C(=O)Nc1cccc(C2CCN(CC[C@H](Oc3ccc(-c4ccccc4)cc3)c3ccccc3)CC2)c1 [Example 134]
377,377,,,,,CC(C)C(=O)Nc1cccc(C2CCN(CC[C@H](Oc3cccc4ccccc34)c3ccccc3)CC2)c1 [Example 137]
11.2,11.2,,,,,CC(C)C(=O)Nc1cccc(C2CCN(CC[C@@H](c3ccccc3)N3C(=O)c4ccccc4C3=O)CC2)c1 [Example 138]
,,,,,20.6,CC(C)C(=O)Nc1cccc(C2CCN(Cc3c[nH]c4cc(Cl)ccc34)CC2)c1 [Example 142]
,,,,,14.9,Cc1ccc(-n2cc(CN3CCC(c4cccc(NC(=O)C(C)C)c4)CC3)c3ccccc32)cc1 [Example 143]
,,,,,16,CCC(=O)N[C@@H](CCN1CCC(c2cccc(NC(=O)C(C)C)c2)CC1)c1ccccc1 [Example 144]
,,,,,3,CC(C)C(=O)Nc1cccc(C2CCN(CC[C@H](NC(=O)Cc3ccc(F)cc3)c3ccccc3)CC2)c1 [Example 145]
,,,,,3,CC(C)C(=O)Nc1cccc(C2CCN(CCCc3c(-c4ccccc4)n(-c4ccccc4)c4ccccc34)CC2)c1 [Example 146]

# More lines, now with the values behind:
SMILES,"Ki [1, 5] [nM]","Ki ([1]; Table 3c, read-out: rMCH1 Ki) [nM]",Ki [2] [nM],Ki [3] [nM],Ki [4] [nM],"Ki [1, 6] [nM]"
"COCC1=C(C(=O)OC)[C@H](c2ccc(F)c(F)c2)N(C(=O)NCCCN2CCC(c3cccc(N)c3)CC2)C(=O)N1 [Example 38, METHYL (4S)-3-[({3-[4-(3-AMINOPHENYL)-1-PIPERIDINYL]PROPYL}AMINO)CARBONYL]-4-(3,4-DIFLUOROPHENYL)-6-(METHOXYMETHYL)-2-OXO-1,2,3,4-TETRAHYDRO-5-PYRIMIDINECARBOXYLATE]",1.34,1.34,23.8,2370,379,
COCC1=C(C(=O)NCCCN2CCC(c3cccc(NC(=O)CC(C)(C)C)c3)CC2)[C@@H](c2ccc(F)c(F)c2)NC(=O)N1 [Example 49],225,225,,,,
CC(=O)Nc1cccc(C2CCN(CCCNC(=O)N3C(=O)NC4=C(C(=O)OC4)C3c3ccc4nonc4c3)CC2)c1 (centres unmarked) [Example 55],204,204,,,,
Cc1ccc(C(=O)CCCN2CCC(c3cccc(NC(=O)C4CCCCC4)c3)CC2)cc1C [Example 59],768,768,,,,
Cc1ccc(C(=O)CCCN2CCC(c3cccc(NC(=O)Cc4ccccc4)c3)CC2)cc1C [Example 60],357,357,,,,
COCC(=O)Nc1cccc(C2CCN(CCCC(=O)c3ccc(C)c(C)c3)CC2)c1 [Example 62],274,274,,,,
Cc1ccc(C(=O)CCCN2CCC(c3cccc(NS(C)(=O)=O)c3)CC2)cc1C [Example 63],1000,1000,,,,
CCS(=O)(=O)Nc1cccc(C2CCN(CCCC(=O)c3ccc(C)c(C)c3)CC2)c1 [Example 64],627,627,,,,
CC(=O)Nc1cccc(C2CCN(CCCC(=O)c3ccccc3)CC2)c1 [Example 73],342,342,,,,
O=C(Cc1ccccc1)Nc1cccc(C2CCN(CCCC(=O)c3ccccc3)CC2)c1 [Example 75],506,506,,,,
COc1cccc(CC(=O)Nc2cccc(C3CCN(CCCC(=O)c4ccccc4)CC3)c2)c1 [Example 76],21,21,41.3,470,,
COc1ccc(C(=O)CCCN2CCC(c3cccc(NC(=O)Cc4ccccc4)c3)CC2)c(OC)c1 [Example 79],1040,1040,,,,
CC(=O)Nc1cccc(C2CCN(CCCC(=O)c3ccc(Oc4ccccc4)cc3)CC2)c1 [Example 81],463,463,,,,
CN(C)S(=O)(=O)Nc1cccc(C2CCN(CCCC(=O)c3ccc(Cl)cc3)CC2)c1 [Example 84],511,511,,,,
CC(=O)Nc1cccc(C2CCN(CCCC(=O)c3ccc(C(C)C)cc3)CC2)c1 [Example 86],382,382,,,,
Cc1ccc(C(=O)CCCN2CCC(c3cccc(NS(=O)(=O)C(C)C)c3)CC2)cc1C [Example 89],615,615,,,,
CC(C)S(=O)(=O)Nc1cccc(C2CCN(CCCC(=O)c3ccc(Oc4ccccc4)cc3)CC2)c1 [Example 90],651,651,,,,
CC(C)C(=O)Nc1cccc(C2CCN(CCCN3C(=O)c4ccccc4C3=O)CC2)c1 [Example 97],946,946,,,,
CC(C)C(=O)Nc1cccc(C2CCN(CC[C@H](O)c3ccccc3)CC2)c1 [Example 98],118,118,,,,
CC(C)C(=O)Nc1cccc(C2CCN(CC[C@H](Oc3ccc(Oc4ccccc4)cc3)c3ccccc3)CC2)c1 [Example 139],48.1,48.1,,,,
COc1ccc(O[C@H](CCN2CCC(c3ccc(NC(=O)C(C)C)cc3)CC2)c2ccccc2)cc1OC [Example 140],121,121,,,,
CC(C)C(=O)Nc1cccc(C2CCN(Cc3ccc(Oc4ccc(Cl)cc4)cc3)CC2)c1 [Example 150],,,,,,5.2
